Data set [1] in a line: Rat toxicology study, control mRNA in DV-140-F2, intramuscular. It is filed as in vivo, Sprague-Dawley rats. Conditions: 4 doses in 2 weeks. How it is done:
Briefly, Sprague-Dawley rats (n=8) were treated with a control mRNA formulated in DV-140-F2 at 0.03 or 0.3 mg/kg or PBS vehicle. Injections were done 4 times over the course of 13 days and were administered intramuscularly into the hind limb. Whole blood was taken for hematology, and serum taken for clinical chemistry and cytokine analysis at 6 hours post the first dose and final dose, and 2 weeks post the final dose. Additionally, 2 of the animals were sacrificed at 6 hours post the final dose and 2 weeks post final dose and a gross necropsy was performed. Tissue samples were retained and histopathology run on select organs.

Data set [2] has as its system recurrent or metastatic cervical cancer, tumors express PD-L1 (CPS≥1). Conditions: single agent, disease progression on or after chemotherapy; cited from earlier work.
Data set [3] has as its system persistent, recurrent, or metastatic cervical cancer, tumors express PD-L1 (CPS≥1). The following applies: in combination with chemotherapy, with or without bevacizumab; cited from earlier work.
Data set [4] addresses T1, HVEM (Homo sapiens, UniProt Q92956).
T1 construct: host or cells: HVEM reporter cell line (not further described)
T1 sequence (Q92956 39-283): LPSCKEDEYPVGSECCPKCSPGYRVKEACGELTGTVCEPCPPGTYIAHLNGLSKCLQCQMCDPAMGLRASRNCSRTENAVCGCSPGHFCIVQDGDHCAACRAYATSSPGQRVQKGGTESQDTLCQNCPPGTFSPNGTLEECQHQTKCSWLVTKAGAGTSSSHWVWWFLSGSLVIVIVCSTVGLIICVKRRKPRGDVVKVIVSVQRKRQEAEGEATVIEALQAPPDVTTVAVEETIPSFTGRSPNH
Put plainly: HVEM activation by LIGHT, HVEM reporter cell line. It is filed as cell-based. Conditions: FIGS. 1A, 1B, 12. From the text:
FIG. 12 illustrates pre-blocking of soluble LIGHT in HVEM co-HEK transfected cells.
FIGS. 13A-13C are a comparison of HVEM activation with supernatant (blue) or cells (orange) for soluble LIGHT or membrane-stabilized LIGHT.

Data set [5] deals with primary human T cell. Put plainly: Human T cell proliferation in response to ENG or WT hLIGHT mRNA with hIL-12 mRNA. Conditions: HEK293 transfected with hIL-12 mRNA plus LIGHT mRNA, 1:5 with T cells, anti-CD3 30 or 100 ng/mL, 4 days; relative to IL-12 and WT hLIGHT. It is filed as cell-based. How it is done: This study was designed to compare the ability of ENG and WT hLIGHT mRNAs in combination with hIL-12 mRNA to stimulate primary human T cell proliferation. Human T cells were isolated from PBMCs from 1 healthy donor and stained with CellTrace Violet. HEK293 cells were transfected with hIL-12 mRNA (RNA-683) and WT hLIGHT (RNA-786) or ENG hLIGHT (RNA-1359) mRNA formulated in Lipofectamine MessengerMAX (0.5 ng each mRNA per 1000 cells). Control cells were transfected with noncoding mRNA control in the same way. Transfected HEK293 cells were cocultured with the T cells in a 1:5 ratio in the presence of 30 ng/mL or 100 ng/mL anti-CD3 antibody to mimic antigen specific TCR engagement for 4 days at 37° C., 5% CO2. CD8+ T cell proliferation was assessed by flow cytometry and the proliferation index was calculated. […] The results are shown in FIG. 10A, where ENG=engineered; HEK=human embryonic kidney; IL-12=interleukin-12; PBMC=peripheral blood mononuclear cell; WT=wildtype. The data in FIG. 10A represent mean±standard deviation (n=4). Statistical analysis was performed by unpaired student's t-test (P<0.05).

The test system of data set [6] is CD3+ T cells. Put plainly: T cell proliferation in co-culture with HEK cells transfected with LIGHT variants. The format is cell-based, human. Conditions: vs soluble (Wt) LIGHT, FIGS. 9A, 9B. How it is done:
LIGHT variants were formulated in MessengerMax mRNA Transfection Reagent. Human embryonic kidney (HEK) cells were transfected with the LIGHT variant constructs for cell surface expression of LIGHT. CellTrace Violet (Thermo Fischer Scientific) was used to label CD3+ T cells from the resulting peripheral blood mononuclear cells (PBMC). 100 ng/mL of soluble CD3 Antibody was added to the resulting labeled CD3+ T cells. The T cell proliferation and interferon-gamma (IFN-7) secretion was evaluated about 5 days of co-culture.

Data set [7] concerns transfected cells. As to the kind of experiment: Surface expression of soluble or membrane-stabilized LIGHT by flow cytometry using HVEM binding. It is filed as cell-based. Conditions: compared to WT LIGHT mRNA. From the text: FIGS. 14A and 14B depict the assessment of surface expression of soluble LIGHT or membrane-stabilized LIGHT by flow cytometry using HVEM binding.
On the technique in general: A flow cytometer gives signals particle by particle.

[8] abbreviates: High dose in rat, 100 μg RNA IM.
[9] abbreviates: Therapeutic dose scaled for rat, 30 μg RNA IM.

“Also recorded” adds a separate entry of the source.

In the case of `CCCCCCCCCCN(CC(N)=O)C(=O)CN(CCCCCCCCCC)C(=O)CN(CCCCCCCCCC)C(=O)CN(CCCCCCCCCC)C(=O)CNCCO` [Compound 140, N-(2-amino-2-oxoethyl)-N-decyl-2-(N-decyl-2-(N-decyl-2-(N-decyl-2-((2-hydroxyethyl)amino)acetamido)acetamido)acetamido)acetamide], in data set [1] (setting [8]), the Gross organ pathology result is “None observed” and the “Injection site reactions or other clinical observations” value is “None observed”. Besides, in data set [1] (setting [9]), the Gross organ pathology result is on record as “None observed” and the “Injection site reactions or other clinical observations” value is “None observed”.

In the case of pembrolizumab [KEYTRUDA], the objective response result in data set [2] was “around 14%”. Further, the overall survival entry in data set [3] was “improvements in overall survival”.

B1: soluble LIGHT: Wild-type soluble human LIGHT (SEQ ID NO: 1) (protein)
chain: MEESVVRPSVFVVDGQTDIPFTRLGRSHRRQSCSVARVGLGLLLLLMGAGLAVQGWFLLQLHWRLGEMVTRLPDGPAGSWEQLIQERRSHEVNPAAHLTGANSSLTGSGGPLLWETQLGLAFLRGLSYHDGALVVTKAGYYYIYSKVQLGGVGCPLGLASTITHGLYKRTPRYPEELELLVSQQSPCGRATSSSRVWWDSSFLGGVVHLEAGEEVVVRVLDERLVRLRDGTRSYFGAFMV
modifications: Human Wild Type LIGHT (786) aa
Consider B1, for which the “effect of soluble LIGHT on HVEM binding and signaling by membrane-stabilized LIGHT” value in data set [4] was “decreases the ability of membrane-stabilized LIGHT to activate HVEM; also recorded: competes for HVEM binding and reduces signaling by membrane-stabilized LIGHT”.

B2: ENG hLIGHT: mRNA SEQ ID NO: 18 encoding human LIGHT with amino acids #66-92 replaced by 10 amino acid linker (SEQ ID NO: 17) (nucleic acid)
chain: AGGCAUAGAAGUCGAGACACAGCCACUAAGUAAGCCACCAUGGAGGAGAGCGUGGUGCGGCCUAGCGUGUUCGUGGUCGACGGCCAGACCGACAUCCCCUUCACCAGACUGGGAAGAAGCCACAGAAGGCAGUCUUGCUCCGUGGCCAGAGUGGGCCUGGGCCUGCUCCUGCUGCUGAUGGGCGCUGGCCUGGCCGUGCAAGGCUGGUUCCUGCUGCAGCUGCACUGGCGGCUGGGCAGCAGCGCCUCUACCGAUAAGACCCACACCGUGAACCCUGCCGCCCACCUGACCGGCGCCAACAGCUCUCUGACCGGAUCUGGCGGACCUCUGCUGUGGGAGACACAGCUGGGCCUUGCUUUUCUGCGGGGCCUGAGCUACCACGACGGCGCUCUGGUGGUUACAAAGGCCGGCUACUACUACAUCUACAGCAAGGUGCAGCUGGGAGGCGUGGGUUGUCCACUGGGACUGGCCAGCACAAUCACACACGGCCUUUAUAAGCGGACCCCUAGAUACCCCGAGGAACUGGAACUGCUGGUCUCCCAGCAGAGCCCUUGCGGCAGAGCCACAAGCAGCAGCAGAGUGUGGUGGGACAGCUCAUUCCUGGGCGGCGUGGUGCAUCUGGAAGCCGGCGAGAAAGUGGUGGUCAGAGUGCUGGACGAGAGACUGGUGCGGCUGAGAGAUGGGACCCGCUCCUACUUCGGCGCCUUUAUGGUGUGAUAAGCGCCGCCUCCGGGACAGUGCACCCAGGCUGCGGCCCCUCCCCCGUCCUGGAGGUUCCCCAGCCCCACUUACCGCUUAAUGCGCCAAUAAACCAAUGAACGAAGCAAAAAAAAAAAAAAAAAAAAAAAAAAAAAAAAAAAAAAAAAAAAAAAAAAAAAAAAAAAAAAAAAAAAAAAAAAAAAAAAAAAAAAAAAAAAAAAAAAAAAAAAAAAAAAAAAAAAAAAAAAAAAAAAAAAAAAAAAAAAAAAAAAAAAAAAAAAAAAAAAAAAAAAAA
modifications: LIGHT ICD TM 1-66 RLG … LIGHT 92-240 1359, aka 1495 nt
Consider B2, for which, in data set [5], the “CD8+ T cell proliferation and survival” value is “increased CD8+ T cell proliferation and survival”. For the same molecule, the results for the T-cell proliferation result in data set [6] (listed as 1359) and in data set [6] (listed as ENG LIGHT mRNA) were “increase of T-cell proliferation” and “increased T cell proliferation”, respectively. The “surface expression and bioactivity on transfected cells” value in data set [7] was “higher surface expression and bioactivity”.

The values are drawn from patent US12102675B2, “MRNA therapeutic compositions” (Nutcracker Therapeutics, Inc., priority 2022, dated 2024).
